Earlier results on 2 compounds are cited in patent US20100086647A1, “FEED OR FOOD PRODUCTS COMPRISING FUNGAL MATERIAL” (MEDIMUSH AS, priority 2005, published 2010).

One data set concerns S. pyogenes. The note with it: in vitro.
A further data set concerns B. megaterium. Particulars: in vitro.
The next data set has as its system C. jejuni. The note with it: postulated.
Another data set concerns S. staphylococcus. Particulars: in vitro.
In the next data set the test system is E. coli. Particulars: postulated.

On to `C1SSCSSS1` [Lenthionine], for which the antibacterial effect entry in the data set with S. pyogenes, in the data set on B. megaterium and in the data set on S. staphylococcus was “antibacterial” in each case. Besides, the effect on microorganism entry in the data set with C. jejuni and with E. coli was “no effect” in each case.
Lentinan: in the data set with cytochrome P450s (CYPs), the “expression of cytochrome P450s (CYPs)” value was “can suppress the expression”.
